Earlier results as cited in patent publication US4749649A, “Microbial Δ1-dehydrogenation process using a scavenger of toxic oxygen” (The Upjohn Company, priority 1983, dated 1988).

How the values were obtained:
steroid-1-dehydrogenase = conditions: Pseudomonas testosteroni; potential toxicity by superoxide and peroxide formation
[1] = compared with hydrocortisone and cortisone
[2] = compared with hydrocortisone and cortisone; remark: listed apart in the source

Structure (SMILES) | 1-dehydrogenase activity in the presence of PMS (steroid-1-dehydrogenase) | potency [1] | drug-induced salt retention [2]
C[n+]1c2ccccc2nc2ccccc21 [PMS, phenazinemethosulfate] | essentially unaffected |  | 
C[C@]12C=CC(=O)C=C1CC[C@@H]1[C@@H]2[C@@H](O)C[C@@]2(C)[C@H]1CC[C@]2(O)C(=O)CO [prednisolone] |  | enhanced potency | less drug-induced salt retention
C[C@]12C=CC(=O)C=C1CC[C@@H]1[C@@H]2C(=O)C[C@@]2(C)[C@H]1CC[C@]2(O)C(=O)CO [prednisone] |  |  | less drug-induced salt retention
